Experiments:
[1] = Storage stability of ivermectin in extruded dog food (HPLC content, frozen versus ambient); type: physicochemical
Description: Following this treatment, the product was dried to a moisture level of less than 10% by weight. Three samples from the dryer were subsequently frozen and another […] placed in a plastic bag and stored at room temperature, for a period in excess of six months.
The products resulting from this test were analyzed to determine the content of ivermectin in the samples. In this analysis, each feed sample was ground in a Retsch mill at low speed using a 2 mm grating screen, so that the ground material would pass through a #10 mesh screen. A total of six samples, three frozen and three stored at room temperature, were processed. In each case, three 37.5 g of a sample was placed in a 250 ml bottle and 100 ml of methanol was added. The bottle was capped, the sample was sonicated for 20 minutes and shaken for 1 hour. 40 ml of the extract was added to a centrifuge tube and centrifuged for 5 minutes at 2000 rpm. 20 ml of the supernatant solution was then passed through a alumina column. The first five ml was rejected and the remainder of the liquid through the column was collected as a purified sample. 2 ml of the purified sample was mixed with a 5 ml mixture of acetonitrile:water (1:1), and a solid phase extraction (SPE) was performed in accordance with the procedure described in Doherty et al., Analytical Chemists International, 81:869(4) (1998). […]

[2] = Ivermectin content of dog blood after ad libitum feeding of ivermectin-containing dog food (HPLC); type: in vivo; conditions: female mixed breed dog about 10 kg; Example 2 feed (approx. 1121.1 μg ivermectin/kg db) ad libitum; blood drawn four hours after eating, day 7 and seven days later
Description: The dog food from this run was fed ad libitum to an intact female mixed breed dog weighing about 10 kg. On day 7, blood was drawn from the dog four hours after eating and stored in an anti-coagulant tube with calcium EDTA in a refrigerator. Seven days later, the same dog was again fed the ivermectin-containing feed ad libitum and blood was collected four hours post-feeding. This sample was also refrigerated in the same fashion as the first sample.
The blood samples were then analyzed to determine the content of ivermectin therein, using HPLC. The procedure used was described in Diclidnson, Journal of Chromatography, 58:250-257 (1990). In this procedure, 0.5 ml of each blood sample was purified using solid phase extraction (SPE) cartridges and dissolved in a small volume of mobile phase for injection onto the HPLC column. The method has a limit of detection of about 2 ng/ml and uses an internal standard. After preparation of the internal standard, a standard curve is constructed using ivermectin-spiked blood samples. A known 1% ivermectin sample was used as the primary standard.
The blood samples from the dog were then analyzed for ivermectin content with HPLC peak heights corrected using the internal standard.

Substance: Ivermectin
- average ivermectin content of the three frozen and the ambient-stored samples ([1]; co-extruded pillow dog food of Example 1, stored frozen or at room temperature in excess of six months, expected content 0.42 μg/kg, HPLC): 0.43 µg/kg
- effect of storage conditions (frozen versus ambient) upon ivermectin potency ([1]; dog food of Example 1, frozen versus room temperature in excess of six months): little effect
- ivermectin in dog blood samples [2]: 5 to 8 ng/mL
